# ChEMBL document CHEMBL6114967, “Design and synthesis of novel sulfur-substituted triptolide with the ability to induce autophagy through inhibition of SRSF1 expression” (Eur J Med Chem, 2025)
# Calls of active or inactive are those of the source. The rule behind the calls is not given here.
# Columns and labels:
# [1] = tested on: AGS; test: Induction of apoptosis in human AGS cells assessed as viable cells at 1 uM incubated for 48 hrs by annexin V-FITC and PI staining based flow cytometry analysis (reference value: 92.0%); type: functional; settings: read-out: Activity
# [2] = tested on: AGS; test: Induction of apoptosis in human AGS cells assessed as necrotic cells at 2 uM incubated for 48 hrs by annexin V-FITC and PI staining based flow cytometry analysis (reference value: 0.44%); type: functional
# [3] = tested on: AGS; test: Induction of apoptosis in human AGS cells assessed as increase in cleaved caspase-3 expression at 0.5 to 2 uM incubated overnight by Western blotting analysis; type: functional, cell-based; settings: dose 0.5-2 µM
# [4] = tested on: HGC-27; test: Antitumor activity against human HGC-27 cells xenografted in male BALB/c nude mouse assessed as tumor growth inhibition at 100 mg/kg, ip administered every day for 15 days relative to control; type: functional; settings: HGC-27, 360 h, time 15 day, read-out: TGI
# [5] = tested on: HGC-27; test: Downregulation of SRSF1 mRNA expression in human HGC-27 cells at 2 uM incubated for 24 hrs; type: functional, cell-based
# [6] = tested on: HGC-27; test: Upregulation of MAP1LC3B2 mRNA expression in human HGC-27 cells at 2 uM incubated for 24 hrs; type: functional, cell-based
# [7] = tested on: HGC-27; test: Induction of autophagy in human HGC-27 cells assessed as upregulation of LC3 I protein level at 0.5 to 2 uM incubated for 48 hrs by Western blotting analysis; type: functional, cell-based; settings: dose 0.5-2 µM
# [8] = Acute toxicity in male ICR mouse assessed as lethal dose administered as ip; settings: in vivo
# [9] = tested on: HGC-27; test: Induction of autophagy in human HGC-27 cells assessed as increase in LC3 II/LC3 I ratio in tumor tissue at 25 to 100 mg/kg, ip administered daily; type: functional, organism-based; settings: dose 25-100 mg/kg
smiles,measurement,setting,value
CC(C)[C@]12O[C@H]1[C@@H]1O[C@]13[C@]1(O[C@H]1C[C@H]1C4=C(CC[C@@]13C)C(=S)OC4)[C@@H]2O,viability at 1 µM,[1],65.1%
same,Activity,[2],0.82%
same,Activity,[3],Active
same,inhibition in vivo at 100 mg/kg,[4],82.7%
same,Activity,[5],Active
same,Activity,[6],Active
same,Activity,[7],Active
same,LD50,[8],> 1000 mg/kg
same,Activity,[9],Active
